Reference: PubChem BioAssay AID1259407 (Chemical Carcinogenesis Research Information System (CCRIS), 2018)
Active and inactive are the calls of the source. No rule for the calls is given here.

Tested on: CCRIS mutagenicity, Ames/micronucleus/aberration tests
Assay: CCRIS mutagenicity studies
[1] = Test System: AMES SALMONELLA TYPHIMURIUM, Strain/Indicator: TA98, Metabolic Activation: NONE, Method: STANDARD PLATE
[2] = Test System: AMES SALMONELLA TYPHIMURIUM, Strain/Indicator: TA100, Metabolic Activation: NONE, Method: STANDARD PLATE
[3] = Test System: AMES SALMONELLA TYPHIMURIUM, Strain/Indicator: TA97, Metabolic Activation: NONE, Method: PREINCUBATION
[4] = Test System: AMES SALMONELLA TYPHIMURIUM, Strain/Indicator: TA98, Metabolic Activation: NONE, Method: PREINCUBATION
[5] = Test System: AMES SALMONELLA TYPHIMURIUM, Strain/Indicator: TA100, Metabolic Activation: NONE, Method: PREINCUBATION
[6] = Test System: AMES SALMONELLA TYPHIMURIUM, Strain/Indicator: TA97, Metabolic Activation: RAT, LIVER, S-9, AROCLOR 1254, Method: PREINCUBATION
[7] = Test System: AMES SALMONELLA TYPHIMURIUM, Strain/Indicator: TA102, Metabolic Activation: NONE, Method: PREINCUBATION

For `Nc1ncnc2c1nc(Cl)n2[C@@H]1O[C@@H]2COP(=O)(O)O[C@H]2[C@H]1O`, the mutagenic call (End Point: IN VIVO CHROMOSOMAL ABERRATIONS, Test System: BONE MARROW, Species: MOUSE, Strain/Sex: BALB/C, Route: IP) was “active; positive (structural and ploidy changes)”, the mutagenic call (End Point: IN VIVO MICRONUCLEUS, Test System: BONE MARROW, Species: MOUSE, Strain/Sex: BALB/C, Route: IP) was “active; positive” and the mutagenic call (Test System: MOUSE LYMPHOMA, Strain/Indicator: L5178Y (TK+/TK-), Metabolic Activation: NONE, Method: SUSPENSION/PLATE) was “inactive; negative. reevaluation of results: negative”. For the same compound, the mutagenic call (Test System: MOUSE LYMPHOMA, Strain/Indicator: L5178Y (TK+/TK-), Metabolic Activation: RAT, LIVER, S-9, AROCLOR 1254, Method: SUSPENSION/PLATE) was “inactive; negative. reevaluation of results: negative”.
For `[Cl][La]([Cl])[Cl]`, the mutagenic call (Test System: E. COLI, Strain/Indicator: WP2 UVRA, Metabolic Activation: NONE, Method: SPOT TEST) was “inactive; negative”.
`O=[N+]([O-])c1ccc(/C=C/c2ccc(Cl)cc2)cc1` was tested, and the mutagenic call (Test System: AMES SALMONELLA TYPHIMURIUM, Strain/Indicator: TA98 (NR), Metabolic Activation: NONE, Method: STANDARD PLATE) was “active; positive”, the mutagenic call (Test System: AMES SALMONELLA TYPHIMURIUM, Strain/Indicator: TA98 (NR), Metabolic Activation: S-9, Method: STANDARD PLATE) was “active; positive” and the mutagenic call [1] was “active; positive”. The mutagenic call (Test System: AMES SALMONELLA TYPHIMURIUM, Strain/Indicator: TA98, Metabolic Activation: S-9, Method: STANDARD PLATE) was “active; positive”, the mutagenic call (Test System: AMES SALMONELLA TYPHIMURIUM, Strain/Indicator: TA100 (NR), Metabolic Activation: NONE, Method: STANDARD PLATE) was “inactive; negative” and the mutagenic call (Test System: AMES SALMONELLA TYPHIMURIUM, Strain/Indicator: TA100 (NR), Metabolic Activation: S-9, Method: STANDARD PLATE) was “inactive; negative”. For the same compound, the mutagenic call [2] was “inactive; negative” and the mutagenic call (Test System: AMES SALMONELLA TYPHIMURIUM, Strain/Indicator: TA100, Metabolic Activation: S-9, Method: STANDARD PLATE) was “active; positive”.
`C1CN1c1nc(N2CC2)nc(N2CC2)n1` was tested, and the mutagenic call [1] was “active; positive”, the mutagenic call [2] was “active; positive” and the mutagenic call (Test System: CHINESE HAMSTER V-79, Strain/Indicator: V-79/6-THIOGUANINE, Metabolic Activation: NONE, Method: FLASK ASSAY) was “active; positive”. The mutagenic call (Test System: E. COLI, Strain/Indicator: WP2 (HCR), Metabolic Activation: NONE, Method: STANDARD PLATE) was “active; positive”.
In the case of `CCCCCc1cc(O)cc(O)c1`, the mutagenic call (Test System: AMES SALMONELLA TYPHIMURIUM, Strain/Indicator: TA97, Metabolic Activation: HAMSTER, LIVER, S-9, AROCLOR 1254 (10 OR 30%), Method: PREINCUBATION) is reported as “inactive; negative”, the mutagenic call [3] is reported as “inactive; negative” and the mutagenic call (Test System: AMES SALMONELLA TYPHIMURIUM, Strain/Indicator: TA97, Metabolic Activation: RAT, LIVER, S-9, AROCLOR 1254 (10 OR 30%), Method: PREINCUBATION) is reported as “inactive; negative”. For the same compound, the mutagenic call (Test System: AMES SALMONELLA TYPHIMURIUM, Strain/Indicator: TA98, Metabolic Activation: HAMSTER, LIVER, S-9, AROCLOR 1254 (10%), Method: PREINCUBATION) was “inactive; negative”, the mutagenic call (Test System: AMES SALMONELLA TYPHIMURIUM, Strain/Indicator: TA98, Metabolic Activation: HAMSTER, LIVER, S-9, AROCLOR 1254 (30%), Method: PREINCUBATION) was “inactive; negative” and the mutagenic call [4] was “inactive; negative”. The mutagenic call (Test System: AMES SALMONELLA TYPHIMURIUM, Strain/Indicator: TA98, Metabolic Activation: RAT, LIVER, S-9, AROCLOR 1254 (10%), Method: PREINCUBATION) was “inactive; negative”, the mutagenic call (Test System: AMES SALMONELLA TYPHIMURIUM, Strain/Indicator: TA98, Metabolic Activation: RAT, LIVER, S-9, AROCLOR 1254 (30%), Method: PREINCUBATION) was “inactive; negative” and the mutagenic call (Test System: AMES SALMONELLA TYPHIMURIUM, Strain/Indicator: TA100, Metabolic Activation: HAMSTER, LIVER, S-9, AROCLOR 1254 (10%), Method: PREINCUBATION) was “inactive; negative”. For the same compound, the mutagenic call (Test System: AMES SALMONELLA TYPHIMURIUM, Strain/Indicator: TA100, Metabolic Activation: HAMSTER, LIVER, S-9, AROCLOR 1254 (30%), Method: PREINCUBATION) was “inactive; negative”, the mutagenic call [5] was “inactive; negative” and the mutagenic call (Test System: AMES SALMONELLA TYPHIMURIUM, Strain/Indicator: TA100, Metabolic Activation: RAT, LIVER, S-9, AROCLOR 1254 (10%), Method: PREINCUBATION) was “inactive; negative”. The mutagenic call (Test System: AMES SALMONELLA TYPHIMURIUM, Strain/Indicator: TA100, Metabolic Activation: RAT, LIVER, S-9, AROCLOR 1254 (30%), Method: PREINCUBATION) was “inactive; negative”, the mutagenic call (Test System: AMES SALMONELLA TYPHIMURIUM, Strain/Indicator: TA1535, Metabolic Activation: HAMSTER, LIVER, S-9, AROCLOR 1254 (10 OR 30%), Method: PREINCUBATION) was “inactive; negative” and the mutagenic call (Test System: AMES SALMONELLA TYPHIMURIUM, Strain/Indicator: TA1535, Metabolic Activation: NONE, Method: PREINCUBATION) was “inactive; negative”. The mutagenic call (Test System: AMES SALMONELLA TYPHIMURIUM, Strain/Indicator: TA1535, Metabolic Activation: RAT, LIVER, S-9, AROCLOR 1254 (10 OR 30%), Method: PREINCUBATION) was “inactive; negative”.
In the case of `CCOCc1c(O)cc2c(c1O)C(=O)c1ccccc1C2=O`, the mutagenic call [3] is reported as “inactive; negative”, the mutagenic call [6] is reported as “active; positive” and the mutagenic call [4] is reported as “active; positive”. The mutagenic call (Test System: AMES SALMONELLA TYPHIMURIUM, Strain/Indicator: TA98, Metabolic Activation: RAT, LIVER, S-9, AROCLOR 1254, Method: PREINCUBATION) was “active; positive”, the mutagenic call (Test System: AMES SALMONELLA TYPHIMURIUM, Strain/Indicator: TA98, Metabolic Activation: RAT, LIVER, S-9, PCB, Method: PREINCUBATION) was “active; positive” and the mutagenic call [5] was “active; positive”. The mutagenic call (Test System: AMES SALMONELLA TYPHIMURIUM, Strain/Indicator: TA100, Metabolic Activation: RAT, LIVER, S-9, AROCLOR 1254, Method: PREINCUBATION) was “active; positive”, the mutagenic call (Test System: AMES SALMONELLA TYPHIMURIUM, Strain/Indicator: TA100, Metabolic Activation: RAT, LIVER, S-9, PCB, Method: PREINCUBATION) was “active; positive” and the mutagenic call [7] was “active; positive”. The mutagenic call (Test System: AMES SALMONELLA TYPHIMURIUM, Strain/Indicator: TA102, Metabolic Activation: RAT, LIVER, S-9, Method: PREINCUBATION) was “active; positive”, the mutagenic call (Test System: AMES SALMONELLA TYPHIMURIUM, Strain/Indicator: TA1537, Metabolic Activation: NONE, Method: PREINCUBATION) was “active; positive” and the mutagenic call (Test System: AMES SALMONELLA TYPHIMURIUM, Strain/Indicator: TA1537, Metabolic Activation: RAT, LIVER, S-9, AROCLOR 1254, Method: PREINCUBATION) was “active; positive”. The mutagenic call (Test System: AMES SALMONELLA TYPHIMURIUM, Strain/Indicator: TA1537, Metabolic Activation: RAT, LIVER, S-9, Method: PREINCUBATION) was “active; positive”, the mutagenic call (Test System: CHINESE HAMSTER V-79, Strain/Indicator: V-79/8-AZAGUANINE, Metabolic Activation: NONE, Method: STANDARD PLATE) was “inactive; negative” and the mutagenic call (Test System: CHINESE HAMSTER V-79, Strain/Indicator: V-79/8-AZAGUANINE, Metabolic Activation: PRIMARY RAT HEPATOCYTES, Method: STANDARD PLATE) was “active; positive”.
`CC(=O)c1ccc2ccccc2c1` was tested, and the mutagenic call [3] was “inactive; negative”, the mutagenic call [6] was “inactive; negative” and the mutagenic call [7] was “inactive; negative”. For the same compound, the mutagenic call (Test System: AMES SALMONELLA TYPHIMURIUM, Strain/Indicator: TA102, Metabolic Activation: RAT, LIVER, S-9, AROCLOR 1254, Method: PREINCUBATION) was “inactive; negative”.
With `O=C(O)[C@H]1OC(Oc2c3ccccc3c3ccc4cccc5ccc2c3c54)[C@H](O)[C@@H](O)[C@@H]1O` (some centres undefined) the mutagenic call [4] was “inactive; negative” and the mutagenic call (Test System: AMES SALMONELLA TYPHIMURIUM, Strain/Indicator: TA98, Metabolic Activation: RAT, LUNG, S-9, Method: PREINCUBATION) was “inactive; negative”.
